Data from PMC4674085, “Towards Prebiotic Catalytic Amyloids Using High Throughput Screening” (PLoS ONE, 2015).
Peptide text beside a SMILES is read from it.

Assays:
[1] = Circular dichroism (CD), secondary structure of aggregates; assay type: physicochemical; set-up: key: β+: has minimum near 217 nm; β++: has minimum near 217 nm and a maximum near 197 nm; −: signal too weak to interpret; ?: spectra not typical of any secondary structure
Method: The concept of creating an amyloid library out of a peptide library is only meaningful if the vast majority of the peptides actually form amyloids in at least one of the conditions tested. To establish the validity of our amyloid library we measured circular dichroism (CD), Fourier transform infrared spectroscopy (ATR-FTIR), as well as thioflavin T (ThT) fluorescence of peptides 1–33 at pH 7.3 (50 mM HEPES) and pH 4 (50 mM NaOAc) (see interactive Table A and associated data in S1 File). Based on the analysis of the CD and ATR-FTIR spectra (shown in the interactive Table A in S1 File) all the peptides formed β-structured aggregates in at least one condition. Most of the 33 peptides induced a significant increase in ThT fluorescence in at least one condition. […] The fibrils from a selection of the active peptides were aligned and analyzed by X-ray diffraction (Figures C and D in S1 File). In each case we observed the cross-β diffraction pattern typical of amyloid fibrils, although the degree of sample alignment varied. For two samples, 14 and 27, the difference in meridional and equatorial diffraction intensities was small but easily detected in a plot of the angular dependence of the intensity (Figure D in S1 File). The conclusion that can be drawn out of the multiple analysis techniques is that the 33 peptides that comprise the library are overwhelmingly prone to form fibril-like, β-structured aggregates. The cross-β diffraction of the tested aggregates would imply that they are more specifically all amyloidogenic.
CD measurements were carried out on a Jasco J815. Samples were prepared by centrifuging the amyloid library at 25,000 g for 10 min and then removing the supernatant. The pellets were resuspended at an approximate concentration of 100 μg/ml in 10 mM HEPES pH 7.3 (for mixtures from 50 mM HEPES) or 10 mM NaOAc pH 4 (for mixtures from 50 mM NaOAc), the suspensions were then treated with an ultrasonic probe for 5 s, upon which the solutions were placed in 1 mm cuvettes, diluted as necessary to maintain the detector voltage below 600 V and scanned from 260–190 nm at 50 nm/min, 1 nm band-pass, 2 second integration, averaged over 3 repetitions.
(§1) Table A and associated data: Biophysical characterization of library
(§2) Sequence ThT1 CD2 FTIR3 EM4 ThT CD FTIR EM X-ray5 […]
2. […]

[2] = Thioflavin T fluorescence (ThT); assay type: physicochemical; settings: crude peptide fibrillized at 160 μM, mixed 10:1 with 50 μM ThT, ex 440 nm em 480 nm
Method: The samples of the amyloid library (50 mM HEPES pH 7.3 or 50 mM NaOAc pH 4) were mixed 10:1 with 50 μM ThT and the increase in fluorescence was measured in a 384-well plate in a BMG Pherastar platereader (ex: 440 nm em: 480 nm). The background signal from the peptides without ThT was subtracted from the one with the ThT present in the sample. Due to the large dynamic range of the signals among the many samples, the measurements were made at two different gain settings to ensure that all of the signals fell within the measureable range.
as §1
Sequence ThT1 CD2 FTIR3 EM4 ThT CD FTIR EM X-ray5
1. Fold increase in ThT ﬂuorescence over background. […]

[3] = ATR-FTIR, amide I peak of aggregates; assay type: physicochemical; set-up: key: indicates that no peak was observed within the typical range of stretching frequencies forβ-structure (between dashed lines at 1638 cm−1 and 1615 cm−1); settings: air-dried pellet, crude peptide
Method: Samples were prepared as for the CD measurements, but instead of re-suspending the samples after centrifugation, 3 μl of H2O were added to the pellet so that it could be placed onto the diamond ATR cell of a Bruker Alpha-p ATR-FTIR spectrometer followed by air-drying before measuring the spectra. Blank subtraction was performed with an empty cell (air) and all measurements were performed without the pressure applicator.
as §1, §2
(§3) 3. The peak position in amide I region is given in cm−1. […]

[4] = Transmission electron microscopy (TEM) of fibrils; assay type: physicochemical; set-up: key: +: ﬁbrils present; −: absent in EM micrographs; settings: uranyl acetate stain
Method: The samples of the amyloid library (50 mM HEPES pH 7.3 or 50 mM NaOAc pH 4) were applied directly to glow-discharged carbon-coated grids, washed and then stained with uranyl acetate. Images were recorded on a Philips CM 12 electron microscope.
as §1, §2
4. (+) ﬁbrils present or (−) absent in EM micrographs. […]

[5] = Plate reader 4NPA hydrolysis kinetics of purified peptide amyloids at pH 7.3; assay type: biochemical; settings: for k cat/K M = k 2 from linear fit to v 0 = [E]0 k 2[S] / k cat/K M / K M / k cat: 4NPA hydrolysis; for k cat/K M = k 2 from linear fit to v 0 = [E]0 k 2[S]: pH 7.3, plate reader A400, triplicate (36 without replicates); for k cat/K M / K M / k cat: pH 7.3 HEPES with zinc(II), 20 μM purified peptide; for k cat/K M: 0.1-1.0 mM 4NPA, 1% CH3CN, A400, Michaelis-Menten fit, triplicate (duplicate for 8, 27, 34, 35); for k cat/K M / k cat: per monomer peptide; for K M / k cat: Michaelis-Menten fit
Method: The reaction buffer consisted of the same buffer as the fibrillization buffer without ZnCl2 and with 1.33 mM 4NPA prepared from a 100 mM stock in CH3CN. The samples of the amyloid library were mixed 1:3 with the reaction buffer yielding 40 μM peptide and, when present 250 μM zinc(II). The absorbance measurements were performed in a BMG Pherastar platereader with a 400 nm band-pass filter (10 nm bandwidth) in 96-well Nunclon Delta surface plates or 384-well Greiner Bio-One non-bind black μclear plates.
The kinetics assays performed on the purified peptides were prepared similarly except that the peptide concentration was 20 μM in the reaction. Furthermore, the various substrate concentrations and replicate samples were randomly distributed over the plate to minimize systematic errors. Various 4NPA concentrations (i.e. 0.1 mM, 0.2 mM, 0.4 mM, 0.6 mM, 1.0 mM) were added from a 100 times stock so that the final CH3CN concentration was always 1%. The linear part of the hydrolysis activity was fit with an extinction coefficient of ε = 9700 M^-1cm^-1 and corrected for the background reaction rate of buffer alone (v bg = 5.0 × 10^-6 Ms^-1) to obtain the initial reaction rate v 0. The average of the initial reaction rates at each substrate concentration were then fit to the Michaelis-Menten type kinetics to obtain k cat, K M and k cat/K M always calculated per monomer peptide. The background reaction rate was obtained similarly using 5 replicates.

[6] = X-ray fiber diffraction of aligned fibrils; assay type: physicochemical; settings: washed pellets dried between glass capillaries, room temperature
Method: The samples were centrifuged, the pellet resuspended (ultrapure water or 10 mM NaOAc pH 4) and centrifuged again. The washed pellets were resuspended in a minimal amount of water and 4 μl of the suspension were pipetted between the melted ends of two glass capillaries, which were then left to dry overnight in a sealed petri dish. The dried material was placed in an X-ray beam (Rigaku MicroMax-007HF) at room temperature for a 20 min exposure and diffraction data was collected on a Mar345 image plate detector.
Table A and associated data: Biophysical characterization of library […]
1. Fold increase in ThT ﬂuorescence over background.
2. CD spectra classiﬁed as follows: (β+) has minimum near 217 nm, (β++) has minimum near 217 nm and a maximum near 197 nm, (−) signal too weak to interpret, (?) spectra not typical of any secondary […]
as §3
within the typical range of stretching frequencies forβ-structure (between dashed lines at 1638 cm−1 and […]
4. (+) ﬁbrils present or (−) absent in EM micrographs.
5. Diﬀraction images recorded for the aligned ﬁbrils of 5 diﬀerent peptides (see materials and methods).

[7] = NMR-based 4NPA hydrolysis assay at pH 4.3; assay type: biochemical; settings: 4NPA hydrolysis by 1D-1H NMR, 50 mM d3-NaOAc pH 4.3, 2% d6-DMSO, 40 μM total purified peptide (mixture 20 μM each), 0.9 mM 4NPA, 25°C, over 15 days, first order fit, no zinc(II)
Method: Purified peptides were solubilized in deuterated DMSO with 1% TFA at a concentration of 4 mM and subsequently diluted to 160 μM in 50 mM deuterated NaOAc buffer at pH 4.3. In the case of the peptide mixture fibrillization (12/21), each peptide was 80 μM. Fibrillization occurred over 5 days after which the sample was diluted to 40 μM total peptide in 50 mM buffer with 0.9 mM 4NPA (from a 90 mM stock solution in d6-DMSO) and a final concentration of d6-DMSO of 2%. From this reaction mixture 500 μl was transferred to a 5 mm NMR tube and measurements were performed in a 600 MHz Bruker NMR spectrometer equipped with a cryo-probe.
The hydrolysis kinetics were monitored in a continuous series of 1D-^1H experiments each consisting of 32 scans at 25°C and each requiring 17 min. In this manner, several time segments lasting between 8 and 17 hours were collected over a period of 15 days. Between measurements, the samples were kept at 25°C.
Data processing and peak integration was performed with Topspin3.2 (Bruker). Relevant peaks used for the analysis were the 4 aromatic protons of both 4NPA and of its product (p-nitrophenol) as well as the methyl groups of 4NPA and acetic acid. The ratio of the sum of integrals for the product protons to the sum of integrals for all protons was used to calculate the substrate concentration. […]

[8] = Aggregation at pH 4 from soluble material left after 100,000 g centrifugation; assay type: physicochemical; settings: 40 μM purified peptide, pH 4, soluble material in supernatant of 100,000 g centrifugation
[9] = pH 4.0, pellet (25,000 g, 10 min) resuspended ~100 μg/ml in 10 mM NaOAc pH 4, crude peptide
[10] = pH 7.3, pellet (25,000 g, 10 min) resuspended ~100 μg/ml in 10 mM HEPES pH 7.3, crude peptide

| Compound | CD spectrum class [1, 9] | CD spectrum class [1, 10] | ThT, fold increase in ThT fluorescence over background ([2]; pH 4.0, 50 mM NaOAc) [fold] | ThT, fold increase in ThT fluorescence over background ([2]; pH 7.3, 50 mM HEPES) [fold] | FTIR peak position in amide I region ([3]; pH 4.0 (50 mM NaOAc)) | FTIR peak position in amide I region ([3]; pH 7.3 (50 mM HEPES)) [cm⁻¹] | EM, fibrils in EM micrographs ([4]; pH 7.3, 50 mM HEPES) | k cat/K M = k 2 from linear fit to v 0 = [E]0 k 2[S] [5] [M⁻¹ s⁻¹] | k cat/K M [5] [M⁻¹ s⁻¹] | K M [5] [µM] | k cat [5] | other results |
| --- | --- | --- | --- | --- | --- | --- | --- | --- | --- | --- | --- | --- |
| Ac-YVHVSVHV-NH2 [Peptide 10, Ac-YVHVSVHV-CONH2] | − | β+ | 1 | 29 | − | 1623 | + | 0.172 ± 0.003 |  |  |  |  |
| CC(=O)N[C@@H](Cc1c[nH]cn1)C(=O)NCC(=O)N[C@@H](Cc1c[nH]cn1)C(N)=O [Peptide 36, Ac-HGH-CONH2] (Ac-His-Gly-His-NH2) |  |  |  |  |  |  |  | 0.041 ± 0.005 |  |  |  | zinc(II) dependence of 4NPA hydrolysis activity ([5]; pH 7.3): not zinc(II)-dependent |
| Ac-YVSVSVHV-NH2 [Peptide 12, Ac-YVSVSVHV-CONH2] |  | β++ | 5 | 183 | 1621 cm⁻¹ | 1623 |  |  |  |  |  | EM, fibrils in EM micrographs ([4]; pH 4.0, 50 mM NaOAc): +; X-ray diffraction of aligned fibrils [6]: cross-β; k cat/K M [7]: 6145.6±8.5 10^-6M^-1s^-1; aggregation behaviour at pH 4 [8]: began to aggregate within minutes |
| c1c[nH]cn1 [Imidazole, reference compound] |  |  |  |  |  |  |  | 0.199 ± 0.008 |  |  |  |  |
| Ac-YVHVAVHV-NH2 [Peptide 28, Ac-YVHVAVHV-CONH2] | − | β+ | 1 | 114 | − | 1624 | + |  | 0.215 ± 0.007 | 1950 ± 230 | 0.042±0.004 10^-2s^-1 |  |
| Ac-IHIHIQI-NH2 [Peptide 34, Ac-IHIHIQI-CONH2, reference compound] |  |  |  |  |  |  |  |  | 15.76 ± 0.96 | 1570 ± 290 | 2.47±0.32 10^-2s^-1 |  |
